# Results taken from paper PMC12598866, “A Comparative Study of Virucidal and Virustatic Multivalent Entry Inhibitors” (The Journal of Physical Chemistry. B, 2025).
# Read-outs that look alike come from different tables or passages of the source.
# Assays:
# Flu B = assay: Influenza inhibition assay (ICC on MDCK cells); assay type: cell-based; settings: dose–response
# HSV-2 [1] = assay: HSV-2 inhibition assay (plaque reduction on Vero cells, pretreatment); assay type: cell-based, herpes simplex virus type 2; settings: Human alphaherpesvirus 2, Vero, pretreatment condition
# HSV-2 [2] = assay: Growth of viruses in the presence of compounds (posttreatment), HSV-2; assay type: cell-based, herpes simplex virus type 2; settings: posttreatment condition, Vero cells
# [3] = CMC assay (conductivity method); assay type: physicochemical; settings: in water
# Description: The CMC of antiviral compounds was measured by the conductivity method. Antiviral compounds were diluted into water at different concentrations, and the conductivity (μS/cm) was measured at each concentration with a conductivity meter (Mettler Toledo, Switzerland). The CMC was identified as the point on the conductivity-concentration plot where the slope changed.
# HSV-2 [4] = assay: HSV-2 inhibition assay (plaque reduction on Vero cells, pretreatment); assay type: cell-based, herpes simplex virus type 2; settings: for IC99: HSV-2 inhibition, concentration intended to inhibit infection by at least 90 and 99%; for IC50: Human alphaherpesvirus 2, Vero, dose–response, Vero cells
# Description: The inhibitory effect of compounds on HSV-2 was evaluated by plaque reduction assay. Vero cells were plated 24 h before the experiment in 24-well plates with a seeding density of 10^5 cells/well. Serial dilutions of compounds in DMEM medium (2% FBS, 1% P/S) were prepared, followed by the addition of aliquots of HSV-2 such that the final titer of the virus was 200 pfu/mL (with MOI = 0.0005). Compounds/virus mixtures were incubated at 37 °C for 1 h and added to the cells (250 μL/well). Followed by incubation at 37 °C for 1 h, the viral inoculum was removed. The cells were overlaid with DMEM medium containing 1.2% methylcellulose, 2% FBS, and 1% P/S. After 48 h of incubation at 37 °C, 5% CO2, the cells were fixed and stained with 0.1% crystal violet in 20% ethanol. Finally, the plaques were counted. Each group of experiments in the inhibition assay was performed in triplicate. The concentration producing a 50% reduction in plaque formation was determined using Prism 10 software (GraphPad Software, USA) by comparing compound-treated and untreated cells. Infectivity was calculated as the number of plaques in compound-treated cells/number of plaques in untreated cells × 100%.
# [5] = Partition coefficient octanol/water (UV-vis); assay type: physicochemical
# Description: UV–vis spectroscopy was employed first to determine the correct dilution of all compounds. The seven compounds in this study were B3C11SO4, B3C11SO3, B3C6SO3, B3C6SO4, C4C11SO4, C4C11SO3, and C4C3SO3. The protocol is the same for all the compounds: in the beginning, all compounds were dissolved in water at a concentration of 1 mg/mL. The solution was put into a quartz cuvette and then into the UV–vis spectrometer, where the absorbance from wavelengths 600 to 190 nm was investigated. All of the samples presented a peak in absorbance around 200 nm. The samples were diluted further until the absorbance peak reached values near 0.90.
# A biphasic solution composed of 1.5 mL of a water solution of antiviral +1.5 mL of octanol was thoroughly mixed for 60 min. After the mixing, the two phases were separated by centrifugation for 1 min using a benchtop centrifuge at 5000 rpm. The water phase saturated in octanol and the octanol phase saturated with water were extracted and characterized by UV–vis spectrometry.
# The partition coefficient (log P) was then calculated using formula : logP=log(Absorbanceofoctanolphase/Absorbanceofwaterphase) 1
# HSV-2 [6] = assay: HSV-2 virucidal assay; assay type: cell-based, herpes simplex virus type 2; settings: virucidal titration at 90–99% viral inhibition concentration, Vero cells
# BSA = target: T1, BSA (Bos taurus, UniProt P02769); assay: Isothermal titration calorimetry with BSA; assay type: binding, bovine; settings: ITC, H2O
# T1 construct: purchased Sigma-Aldrich
# H1N1N09 = assay: Influenza inhibition assay (ICC on MDCK cells); assay type: cell-based, Influenza A/Netherlands/602/2009 (H1N1); settings: Influenza A virus, dose–response
# [7] = Cytotoxicity assay for MDCK (MTT); assay type: cell-based; settings: dog, MDCK cells
# Description: MTT assay was used to evaluate the cytotoxicity on MDCK cells. 10^4 cells per well were seeded in a 96-well plate 1 day before the assay. A dose range of each drug (from 4.11 μM to 1000 μM) was added to the cells in serum-free medium for MDCK cells. The antivirals were incubated on the cells for 24 h at 37 °C. After incubation, the cells were washed, and MTT reagent (Promega) was added to the cells for 4 h at 37 °C according to the manufacturer’s instructions. The cells were then washed, and 50 μL of DMSO was added to free the reagent. Subsequently, the absorbance was read at 579 nm. Percentages of viability were calculated by comparing the absorbance in treated wells and untreated conditions.
# [8] = Cytotoxicity assay on Vero cells (MTS); assay type: cell-based; settings: African green monkey
# Description: Cytotoxicity assay was performed on the Vero cell line with the MTS assay. The cells were plated for 24 h in DMEM medium containing 10% FBS and 1% penicillin/streptomycin with a seeding density of 2 × 10^4 per well in a 96-well plate. […] Then, the cells were washed with PBS twice, followed by the addition of 20 μL MTS reagents together with 80 μL DMEM medium. They were then incubated at 37 °C for 4 h. The cell viability was checked by absorbance at 490 nm with a plate reader.
# H3N2 = assay: Influenza inhibition assay (ICC on MDCK cells, pretreatment); assay type: cell-based; settings: Influenza A virus
# HSV-1 [9] = tested on: HSV-1
# HSV-1 [10] = assay: HSV-1 inhibition assay (plaque reduction on Vero cells); assay type: cell-based, herpes simplex virus type 1; settings: Human alphaherpesvirus 1, dose–response
# Description: The inhibitory effect of compounds on HSV-1 was evaluated by plaque reduction assay. Vero cells were plated 24 h before the experiment in 24-well plates at a density of 10^5 cells/well. Serial dilutions of compounds in DMEM medium (2% FBS, 1% P/S) were prepared, followed by the addition of aliquots of HSV-1 such that the final titer of the virus is […] (with MOI = 0.0005). Compounds/virus mixtures were incubated at 37 °C for 1 h and added to the cells (250 μL/well). Followed by incubation at 37 °C for 1 h, the viral inoculum was removed. The cells were overlaid with DMEM medium containing 1.2% methylcellulose, 2% FBS, and 1% P/S. After 3 days of incubation at 37 °C, 5% CO2, the cells were fixed and stained with 0.1% crystal violet in 20% ethanol, and plaques were counted. Each group of experiments in the inhibition assay was performed in triplicate. The concentration producing a 50% reduction in plaque formation was determined using the Prism 10 software (GraphPad Software, USA) by comparing compound-treated and untreated cells. Infectivity was calculated as the number of plaques in compound-treated cells/number of plaques in untreated cells × 100%.
# HSV-2 [11] = tested on: HSV-2; set-up: method as in Zhu et al., 2024 (citation number not given); settings: earlier paper of the authors on benzene-core MEIs; ref Zhu et al., 2024 (citation number not given); read-out: IC50 against HSV-2; cited from earlier work
# [12] = target: glycoprotein D (gD) of HSV; assay: Isothermal titration calorimetry with glycoprotein D; assay type: binding; settings: ITC, 25°C
# Description: Isothermal titration calorimetry (ITC) experiments were conducted using ITC200 instruments (GE Healthcare, USA) equipped with a 200 μL sample cell and a 40 μL syringe. Thirteen injections were applied. The first data point was excluded. BSA protein and viral protein concentrations in the cell were approximately 50 μM and 1 mg/mL, respectively, and ligand concentrations in the syringe were roughly 2 mM. They were centrifuged at 2000g for 2 min to remove bubbles. The titration was performed at 25 or 37 °C, with data analyzed using MicroCal PEAQ ITC software. Baseline correction was applied, and Nitpic/Sedphat was used for automated integration to ensure precise binding parameter determination.
# H1N1 clinical = assay: Influenza inhibition assay (ICC on MDCK cells); assay type: cell-based; settings: Influenza A virus, dose–response
# [13] = dose–response, read-out: IC50 H3N2
# [14] = pretreatment condition, read-out: pretreatment IC50, H3N2
# T1 sequence (P02769 25-607): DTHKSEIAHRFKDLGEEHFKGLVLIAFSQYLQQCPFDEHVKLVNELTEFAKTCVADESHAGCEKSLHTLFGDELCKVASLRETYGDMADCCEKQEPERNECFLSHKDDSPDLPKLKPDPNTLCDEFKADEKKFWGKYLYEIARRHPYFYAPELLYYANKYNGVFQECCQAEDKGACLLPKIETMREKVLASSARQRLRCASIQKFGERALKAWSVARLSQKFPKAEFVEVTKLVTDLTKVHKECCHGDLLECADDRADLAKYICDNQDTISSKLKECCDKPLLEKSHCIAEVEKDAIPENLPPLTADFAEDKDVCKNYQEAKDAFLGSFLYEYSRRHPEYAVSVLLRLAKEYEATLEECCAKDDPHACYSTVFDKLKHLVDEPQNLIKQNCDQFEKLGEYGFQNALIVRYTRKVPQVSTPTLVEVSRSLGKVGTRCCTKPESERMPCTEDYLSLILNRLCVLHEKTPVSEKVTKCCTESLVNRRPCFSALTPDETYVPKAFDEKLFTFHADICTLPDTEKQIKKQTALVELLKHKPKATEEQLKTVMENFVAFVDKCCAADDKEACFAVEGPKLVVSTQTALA
structure (smiles),measurement,setting,value
O=S(=O)(O)CCCSCc1cc2c(cc1CSCCCS(=O)(=O)O)OCCOCCOc1cc(CSCCCS(=O)(=O)O)c(CSCCCS(=O)(=O)O)cc1OCCOCCO2 [C4C3SO3],IC50,Flu B,> 1000 µM
same,IC50,HSV-2 [1],173.4 ± 1.1 µM
same,IC50,"HSV-2 [2]; Human alphaherpesvirus 2, Vero",69.1 ± 1.01 µM
same,CMC,[3],462.69 ± 57 µM
same,IC99,HSV-2 [4],446 ± 1.1 µM
same,IC50,HSV-2 [4],173.4 ± 1.1 µM
same,logP,[5],-2.45
same,"Virucidal activity, HSV-2",HSV-2 [6],S
same,"N (binding sites, BSA)",BSA; 25 °C (Table 5),0.5
same,ΔG (BSA),BSA; 25 °C (Table 5),–5.73 kcal/mol
same,ΔH (BSA),BSA; 25 °C (Table 5),–7.34 kcal/mol
same,–ΔTS (BSA),BSA; 25 °C (Table 5),1.61 kcal/mol
same,Kd,"BSA; 25 °C (Table 5), read-out: K d (BSA)",63 µM
same,-∆TS (BSA),BSA; 25 °C (Table S3),1.61 kcal/mol
same,N (BSA),BSA; 25 °C (Table S3),0.5
same,∆G (BSA),BSA; 25 °C (Table S3),-5.73 kcal/mol
same,∆H (BSA),BSA; 25 °C (Table S3),-7.34 kcal/mol
same,-∆TS (BSA),BSA; 37 °C (Table S3),24.6 kcal/mol
same,Kd,BSA; 37 °C (Table S3),52.1 µM
same,N (BSA),BSA; 37 °C (Table S3),0.397
same,∆G (BSA),BSA; 37 °C (Table S3),-6.08 kcal/mol
same,∆H (BSA),BSA; 37 °C (Table S3),-30.6 kcal/mol
same,IC50,H1N1N09,> 1000 µM
same,CC50 at 24 h,[7],> 1000 µM
same,CC50 at 48 h,[8],> 1000 µM
same,IC50,H3N2; [13],> 1000 µM
same,IC50,H3N2; [14],> 1000 µM
same,"Virucidal activity, V-1",HSV-1 [9],S
same,IC50,HSV-1 [10],551.9 ± 2 µM
O=S(=O)(O)OCCCCCCSCc1cc(CSCCCCCCOS(=O)(=O)O)cc(CSCCCCCCOS(=O)(=O)O)c1 [B3C6SO4],IC50,Flu B,> 1000 µM
same,IC50,HSV-2 [1],52.9 ± 1.9 µM
same,IC50,HSV-2 [11],78.4 µM
same,IC50,"HSV-2 [2]; Human alphaherpesvirus 2, Vero",56.9 ± 1.48 µM
same,CMC,[3],1390 ± 45.6 µM
same,IC99,HSV-2 [4],1328 ± 1.9 µM
same,IC50,HSV-2 [4],52.9 ± 1.9 µM
same,logP,[5],-1.79
same,Kd,[12],28.1 µM
same,-∆TS (BSA),BSA; 25 °C (Table S3),7.2 kcal/mol
same,Kd,BSA; 25 °C (Table S3),7.27 µM
same,N (BSA),BSA; 25 °C (Table S3),1.69
same,∆G (BSA),BSA; 25 °C (Table S3),-7.29 kcal/mol
same,∆H (BSA),BSA; 25 °C (Table S3),-14.5 kcal/mol
same,-∆TS (BSA),BSA; 37 °C (Table S3),0.938 kcal/mol
same,Kd,BSA; 37 °C (Table S3),1.4 µM
same,N (BSA),BSA; 37 °C (Table S3),1.3
same,∆G (BSA),BSA; 37 °C (Table S3),-7.99 kcal/mol
same,∆H (BSA),BSA; 37 °C (Table S3),-8.93 kcal/mol
same,IC50,H1N1N09,346.9 ± 1.94 µM
same,CC50 at 24 h,[7],> 1000 µM
same,IC50,H1N1 clinical,> 1000 µM
same,CC50 at 48 h,[8],> 1000 µM
same,IC50,H3N2; [13],> 1000 µM
same,IC50,H3N2; [14],346.9 ± 1.94 µM
same,IC50,HSV-1 [10],208 ± 31.4 µM
O=S(=O)(O)CCCCCCSCc1cc(CSCCCCCCS(=O)(=O)O)cc(CSCCCCCCS(=O)(=O)O)c1 [B3C6SO3],IC50,Flu B,> 1000 µM
same,IC50,HSV-2 [1],487 µM
same,IC50,"HSV-2 [2]; Human alphaherpesvirus 2, Vero",180 µM
same,IC50,HSV-2 [2],181 ± 2.06 µM
same,CMC,[3],882.2 ± 18.9 µM
same,IC50,HSV-2 [4],487.3 ± 2.19 µM
same,logP,[5],-2.39
same,Kd,[12],14.2 µM
same,"Virucidal activity, HSV-2",HSV-2 [6],S
same,K d (BSA),BSA; 25 °C (Table 5),no binding
same,"N (binding sites, BSA)",BSA; 25 °C (Table 5),no binding
same,ΔG (BSA),BSA; 25 °C (Table 5),no binding
same,ΔH (BSA),BSA; 25 °C (Table 5),no binding
same,–ΔTS (BSA),BSA; 25 °C (Table 5),no binding
same,IC50,H1N1N09,> 1000 µM
same,CC50 at 24 h,[7],> 1000 µM
same,IC50,H1N1 clinical,> 1000 µM
same,CC50 at 48 h,[8],> 1000 µM
same,IC50,H3N2; [13],> 1000 µM
same,IC50,H3N2; [14],> 1000 µM
same,"Virucidal activity, V-1",HSV-1 [9],S
same,IC50,HSV-1 [10],502.3 ± 2.15 µM
